pIC50, pKi: −log10 of the molar value.
How the values were obtained:
[1] = DRUGMATRIX: Purinergic P2X radioligand binding (ligand: [3H] alpha, beta-Methylene-ATP); type: cell membranes, Oryctolagus cuniculus, New Zealand albino, Urinary bladder, Membrane; conditions: Not Active = under 50% inhibition at 10 µM
[2] = target: T1, Polyunsaturated fatty acid lipoxygenase ALOX15 (Oryctolagus cuniculus, UniProt P12530); experiment: biochemical; type: tissue-based, Reticulocytes; conditions: reticulocytes;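 further: inhibition of 15-lipoxygenase enzyme activity measured with linoleic acid as the substrate; in other assays of this panel Not Active means under 50% inhibition at 10 µM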
T1 sequence (P12530 whole entry): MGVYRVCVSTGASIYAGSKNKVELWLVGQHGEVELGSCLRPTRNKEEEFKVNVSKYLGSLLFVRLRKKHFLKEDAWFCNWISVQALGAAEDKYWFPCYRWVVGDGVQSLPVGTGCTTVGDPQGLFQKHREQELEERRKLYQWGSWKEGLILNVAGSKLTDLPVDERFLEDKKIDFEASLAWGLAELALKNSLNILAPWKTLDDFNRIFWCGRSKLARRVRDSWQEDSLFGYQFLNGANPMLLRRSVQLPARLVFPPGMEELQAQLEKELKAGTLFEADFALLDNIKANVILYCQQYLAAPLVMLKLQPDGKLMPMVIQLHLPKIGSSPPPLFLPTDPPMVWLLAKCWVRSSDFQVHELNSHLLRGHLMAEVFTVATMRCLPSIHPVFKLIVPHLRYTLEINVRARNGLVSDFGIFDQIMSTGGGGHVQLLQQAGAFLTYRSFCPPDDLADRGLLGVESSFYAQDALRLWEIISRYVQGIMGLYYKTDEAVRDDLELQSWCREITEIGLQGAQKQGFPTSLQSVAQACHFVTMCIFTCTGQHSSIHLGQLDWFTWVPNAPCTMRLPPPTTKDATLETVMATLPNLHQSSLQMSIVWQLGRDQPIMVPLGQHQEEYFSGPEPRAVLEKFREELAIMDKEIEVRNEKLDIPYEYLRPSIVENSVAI

[3] = target: 5-hydroxytryptamine receptor 2B (Homo sapiens, UniProt P41595); type: cell membranes, CHO-K1, Membrane; conditions: for IC50: cho-k1; for pIC50: read-out: IC50; for pKi: read-out: Ki; on all read-outs here: in other assays of this panel Not Active means under 50% inhibition at 10 µM
Nitric oxide synthase 1 = Nitric oxide synthase 1 (Rattus norvegicus, UniProt P29476); type: tissue-based, Cerebellum; further: in other assays of this panel Not Active means under 50% inhibition at 10 µM
[4] = target: Tyrosine-protein kinase Fyn (Homo sapiens, UniProt P06241); experiment: biochemical; type: cell-based, Insect cells; conditions: insect cells;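 further: enzymatic inhibition of Fyn kinase activity measured with Poly(Glu:Tyr) as the phosphorylation substrate; in other assays of this panel Not Active means under 50% inhibition at 10 µM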
[5] = target: T2, Muscarinic acetylcholine receptor M4 (Homo sapiens, UniProt P08173); type: cell membranes, CHO-K1, Membrane; conditions: cho-k1; further: in other assays of this panel Not Active means under 50% inhibition at 10 µM
T2 sequence (P08173 whole entry): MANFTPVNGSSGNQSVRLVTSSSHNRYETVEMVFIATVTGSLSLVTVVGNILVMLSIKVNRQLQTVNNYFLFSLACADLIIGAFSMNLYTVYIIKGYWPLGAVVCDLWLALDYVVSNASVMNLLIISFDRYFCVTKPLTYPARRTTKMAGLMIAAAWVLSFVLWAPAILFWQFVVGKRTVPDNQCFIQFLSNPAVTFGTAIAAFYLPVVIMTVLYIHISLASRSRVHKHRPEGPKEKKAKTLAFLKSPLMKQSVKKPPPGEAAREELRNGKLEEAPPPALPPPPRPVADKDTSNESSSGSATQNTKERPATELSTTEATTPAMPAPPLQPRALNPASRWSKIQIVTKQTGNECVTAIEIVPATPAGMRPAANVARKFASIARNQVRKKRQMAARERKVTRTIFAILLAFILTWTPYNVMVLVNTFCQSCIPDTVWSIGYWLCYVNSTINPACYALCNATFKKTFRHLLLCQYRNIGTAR

[6] = DRUGMATRIX: Serotonin (5-Hydroxytryptamine) 5-HT3 radioligand binding (ligand: [3H] GR-65630); type: cell membranes, Membrane; conditions: hek293; Not Active = under 50% inhibition at 10 µM
[7] = DRUGMATRIX: Glutamate, AMPA radioligand binding (ligand: [3H] AMPA); type: cell membranes, Rattus norvegicus, Wistar, Cerebral cortex, Membrane; conditions: Not Active = under 50% inhibition at 10 µM
[8] = DRUGMATRIX: Phosphodiesterase PDE4 enzyme inhibition (substrate: [3H]cAMP + cAMP); conditions: u-937; Not Active = under 50% inhibition at 10 µM
[9] = target: 5-hydroxytryptamine receptor 6 (Homo sapiens, UniProt P50406); type: cell membranes, HeLa, Membrane; conditions: hela; further: in other assays of this panel Not Active means under 50% inhibition at 10 µM
[10] = target: Mitogen-activated protein kinase 14 (Homo sapiens, UniProt Q16539); set-up: species or system Escherichia coli
[11] = DRUGMATRIX: Sodium/nucleoside co-transporter radioligand binding (ligand: nitrobenzylthioinosine); type: cell membranes, Cavia porcellus, Dunkin-Hartley, Cerebral cortex, Membrane; conditions: Not Active = under 50% inhibition at 10 µM
Cytochrome P450 2A6 = target: T3, Cytochrome P450 2A6 (Homo sapiens, UniProt P11509); conditions: bti-tn-5b1-4; further: in other assays of this panel Not Active means under 50% inhibition at 10 µM
T3 sequence (P11509 whole entry): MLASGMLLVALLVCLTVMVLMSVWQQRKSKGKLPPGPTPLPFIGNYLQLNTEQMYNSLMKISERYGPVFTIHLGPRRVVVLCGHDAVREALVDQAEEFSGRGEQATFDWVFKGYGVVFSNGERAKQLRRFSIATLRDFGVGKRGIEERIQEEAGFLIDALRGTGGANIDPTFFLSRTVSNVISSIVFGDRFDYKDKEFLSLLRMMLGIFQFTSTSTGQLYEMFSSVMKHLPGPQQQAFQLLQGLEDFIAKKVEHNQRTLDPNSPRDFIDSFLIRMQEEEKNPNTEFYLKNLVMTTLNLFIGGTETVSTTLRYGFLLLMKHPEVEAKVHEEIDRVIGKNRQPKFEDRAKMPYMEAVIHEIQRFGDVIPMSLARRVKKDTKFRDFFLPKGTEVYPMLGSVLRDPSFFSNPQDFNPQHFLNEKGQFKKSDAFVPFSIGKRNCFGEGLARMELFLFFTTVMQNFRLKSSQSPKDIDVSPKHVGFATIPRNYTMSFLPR

Endothelin-1 receptor = target: T4, Endothelin-1 receptor (Homo sapiens, UniProt P25101); type: cell membranes, Membrane; conditions: cho-k1; further: in other assays of this panel Not Active means under 50% inhibition at 10 µM
T4 sequence (P25101 whole entry): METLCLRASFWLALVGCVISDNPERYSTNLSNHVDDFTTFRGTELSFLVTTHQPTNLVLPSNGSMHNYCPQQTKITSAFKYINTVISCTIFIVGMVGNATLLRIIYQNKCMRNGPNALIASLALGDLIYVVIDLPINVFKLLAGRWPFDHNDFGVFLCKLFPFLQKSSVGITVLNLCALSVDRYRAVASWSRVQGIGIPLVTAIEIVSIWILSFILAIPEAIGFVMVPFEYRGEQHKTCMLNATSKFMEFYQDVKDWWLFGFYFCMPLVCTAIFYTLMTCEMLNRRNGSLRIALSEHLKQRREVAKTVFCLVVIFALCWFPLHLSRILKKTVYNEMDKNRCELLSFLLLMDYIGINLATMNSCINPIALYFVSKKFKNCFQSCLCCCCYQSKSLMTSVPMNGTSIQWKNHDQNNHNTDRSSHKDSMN

Sequence of Mitogen-activated protein kinase 14 (Q16539 whole entry): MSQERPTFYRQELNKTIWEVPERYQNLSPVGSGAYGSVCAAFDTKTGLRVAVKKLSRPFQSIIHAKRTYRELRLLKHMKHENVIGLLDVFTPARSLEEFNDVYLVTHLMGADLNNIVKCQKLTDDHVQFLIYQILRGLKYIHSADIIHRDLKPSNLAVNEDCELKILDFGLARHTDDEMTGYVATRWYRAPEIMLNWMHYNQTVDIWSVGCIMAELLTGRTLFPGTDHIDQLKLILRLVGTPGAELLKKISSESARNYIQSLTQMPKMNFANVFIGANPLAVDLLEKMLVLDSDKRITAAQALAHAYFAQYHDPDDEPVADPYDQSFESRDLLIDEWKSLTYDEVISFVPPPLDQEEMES
Sequence of Tyrosine-protein kinase Fyn (P06241 whole entry): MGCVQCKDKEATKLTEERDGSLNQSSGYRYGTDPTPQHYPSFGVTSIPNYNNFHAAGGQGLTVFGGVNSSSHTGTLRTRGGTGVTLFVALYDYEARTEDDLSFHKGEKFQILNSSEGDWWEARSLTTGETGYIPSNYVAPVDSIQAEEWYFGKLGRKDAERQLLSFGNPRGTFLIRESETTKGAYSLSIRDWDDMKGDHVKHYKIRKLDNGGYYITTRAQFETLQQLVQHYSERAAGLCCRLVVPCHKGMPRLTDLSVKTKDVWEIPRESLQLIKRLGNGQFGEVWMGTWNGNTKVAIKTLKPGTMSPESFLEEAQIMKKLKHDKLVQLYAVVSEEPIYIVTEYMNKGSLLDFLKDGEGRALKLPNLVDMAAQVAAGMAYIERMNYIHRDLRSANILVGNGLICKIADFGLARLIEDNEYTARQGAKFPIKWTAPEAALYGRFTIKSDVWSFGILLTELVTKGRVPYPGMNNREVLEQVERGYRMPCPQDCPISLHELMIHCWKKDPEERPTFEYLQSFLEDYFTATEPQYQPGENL
Sequence of Nitric oxide synthase 1 (P29476 whole entry): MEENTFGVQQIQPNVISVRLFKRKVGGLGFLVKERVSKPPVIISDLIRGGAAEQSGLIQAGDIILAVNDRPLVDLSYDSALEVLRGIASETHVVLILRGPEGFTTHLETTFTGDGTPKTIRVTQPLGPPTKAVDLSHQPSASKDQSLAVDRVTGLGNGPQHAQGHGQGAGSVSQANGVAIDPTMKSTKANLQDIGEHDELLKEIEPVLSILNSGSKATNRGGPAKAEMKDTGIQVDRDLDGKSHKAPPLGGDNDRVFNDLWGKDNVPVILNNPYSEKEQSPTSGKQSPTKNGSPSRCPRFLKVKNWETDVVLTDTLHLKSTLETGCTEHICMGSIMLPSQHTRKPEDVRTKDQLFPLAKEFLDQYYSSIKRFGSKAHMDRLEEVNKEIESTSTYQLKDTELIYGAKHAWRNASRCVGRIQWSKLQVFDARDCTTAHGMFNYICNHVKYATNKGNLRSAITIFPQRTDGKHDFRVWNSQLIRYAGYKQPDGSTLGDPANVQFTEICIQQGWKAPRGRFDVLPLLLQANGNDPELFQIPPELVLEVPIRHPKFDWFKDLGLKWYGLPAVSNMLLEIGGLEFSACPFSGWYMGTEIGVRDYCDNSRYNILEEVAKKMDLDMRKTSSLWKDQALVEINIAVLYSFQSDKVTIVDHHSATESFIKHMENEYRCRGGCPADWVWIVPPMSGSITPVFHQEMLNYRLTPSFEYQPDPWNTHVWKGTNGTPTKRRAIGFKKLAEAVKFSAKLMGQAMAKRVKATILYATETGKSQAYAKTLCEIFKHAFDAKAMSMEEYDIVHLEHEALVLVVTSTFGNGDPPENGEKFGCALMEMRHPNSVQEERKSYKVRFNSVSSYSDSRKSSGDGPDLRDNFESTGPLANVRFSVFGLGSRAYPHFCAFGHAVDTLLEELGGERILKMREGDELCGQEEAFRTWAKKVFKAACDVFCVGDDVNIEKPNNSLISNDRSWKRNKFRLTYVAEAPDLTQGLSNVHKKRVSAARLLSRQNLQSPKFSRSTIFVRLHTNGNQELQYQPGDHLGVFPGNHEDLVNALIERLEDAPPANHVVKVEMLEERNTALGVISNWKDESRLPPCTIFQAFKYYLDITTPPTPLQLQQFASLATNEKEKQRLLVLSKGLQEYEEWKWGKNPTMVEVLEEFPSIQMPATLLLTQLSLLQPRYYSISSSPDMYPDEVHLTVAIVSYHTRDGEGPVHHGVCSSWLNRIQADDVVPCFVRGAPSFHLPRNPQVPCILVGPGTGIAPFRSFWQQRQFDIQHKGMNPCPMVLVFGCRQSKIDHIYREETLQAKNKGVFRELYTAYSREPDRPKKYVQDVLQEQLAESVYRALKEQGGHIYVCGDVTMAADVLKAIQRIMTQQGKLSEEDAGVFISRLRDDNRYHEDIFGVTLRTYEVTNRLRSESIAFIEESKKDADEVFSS
Sequence of 5-hydroxytryptamine receptor 6 (P50406 whole entry): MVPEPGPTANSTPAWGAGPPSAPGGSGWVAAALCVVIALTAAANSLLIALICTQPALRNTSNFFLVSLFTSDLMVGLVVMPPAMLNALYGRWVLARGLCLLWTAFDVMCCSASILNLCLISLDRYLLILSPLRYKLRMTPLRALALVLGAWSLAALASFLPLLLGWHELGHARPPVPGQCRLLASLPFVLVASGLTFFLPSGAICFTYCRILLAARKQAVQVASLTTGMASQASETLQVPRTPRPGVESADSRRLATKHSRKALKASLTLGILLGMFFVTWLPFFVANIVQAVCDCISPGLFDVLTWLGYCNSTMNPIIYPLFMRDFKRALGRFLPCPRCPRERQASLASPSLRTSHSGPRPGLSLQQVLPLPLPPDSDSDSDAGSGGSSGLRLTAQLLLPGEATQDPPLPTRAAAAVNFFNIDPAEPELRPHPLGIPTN
Sequence of 5-hydroxytryptamine receptor 2B (P41595 whole entry): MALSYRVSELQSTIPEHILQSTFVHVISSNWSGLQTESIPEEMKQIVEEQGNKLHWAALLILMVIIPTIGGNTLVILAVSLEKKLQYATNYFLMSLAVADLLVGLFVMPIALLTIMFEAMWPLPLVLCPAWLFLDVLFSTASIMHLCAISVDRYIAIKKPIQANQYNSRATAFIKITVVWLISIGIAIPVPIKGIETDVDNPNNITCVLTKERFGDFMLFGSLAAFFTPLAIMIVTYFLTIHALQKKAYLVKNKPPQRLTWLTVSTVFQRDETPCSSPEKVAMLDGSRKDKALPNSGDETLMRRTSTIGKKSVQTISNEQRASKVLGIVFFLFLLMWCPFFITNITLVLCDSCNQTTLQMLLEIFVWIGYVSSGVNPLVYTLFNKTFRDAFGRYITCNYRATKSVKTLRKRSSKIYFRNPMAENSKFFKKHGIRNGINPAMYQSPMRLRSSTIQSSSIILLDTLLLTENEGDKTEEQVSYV

| SMILES | IC50 [1] | Ki [1] | IC50 [2] | IC50 [3] | IC50 (Nitric oxide synthase 1) | IC50 [4] | IC50 [5] | IC50 [6] | Ki [6] | IC50 [7] | Ki [7] | IC50 [8] | Ki [8] | IC50 [9] | IC50 [10] | IC50 [11] | Ki [11] | IC50 (Cytochrome P450 2A6) | Ki (Cytochrome P450 2A6) | IC50 (Endothelin-1 receptor) | further results |
| --- | --- | --- | --- | --- | --- | --- | --- | --- | --- | --- | --- | --- | --- | --- | --- | --- | --- | --- | --- | --- | --- |
| OCc1ccccc1 [BENZYL ALCOHOL] | Not Active | Not Active | Not Active | Not Active | Not Active | Not Active | Not Active | Not Active | Not Active | Not Active | Not Active | Not Active | Not Active | Not Active | Not Active | Not Active | Not Active | Not Active | Not Active | Not Active | – |
| CCCc1cc(=O)[nH]c(=S)[nH]1 [PROPYLTHIOURACIL] | Not Active | Not Active | Not Active | Not Active | Not Active | Not Active | Not Active | Not Active | Not Active | Not Active | Not Active | Not Active | Not Active | Not Active | Not Active | Not Active | Not Active | Not Active | Not Active | Not Active | – |
| N#C[C@H](O[C@@H]1O[C@H](CO[C@@H]2O[C@H](CO)[C@@H](O)[C@H](O)[C@H]2O)[C@@H](O)[C@H](O)[C@H]1O)c1ccccc1 [AMYGDALIN] | Not Active | Not Active | Not Active | Not Active | Not Active | Not Active | Not Active | Not Active | Not Active | Not Active | Not Active | Not Active | Not Active | Not Active | Not Active | Not Active | Not Active | Not Active | Not Active | Not Active | – |
| C=C1CC[C@H](O)C/C1=C/C=C1\CCC[C@]2(C)[C@@H]([C@H](C)/C=C/[C@H](C)C(C)C)CC[C@@H]12 [ERGOCALCIFEROL] | Not Active | Not Active | Not Active | Not Active | Not Active | Not Active | Not Active | Not Active | Not Active | Not Active | Not Active | Not Active | Not Active | Not Active | Not Active | Not Active | Not Active | Not Active | Not Active | Not Active | – |
| Cc1ccccc1N1CCN(CCc2nnc3n2CCCC3)CC1 [DAPIPRAZOLE] | Not Active | Not Active | Not Active | – | Not Active | Not Active | Not Active | Not Active | Not Active | Not Active | Not Active | Not Active | Not Active | Not Active | Not Active | Not Active | Not Active | Not Active | Not Active | Not Active | pIC50 [3]: 5.98; pKi [3]: 6.17 |
| CC=CC(=O)N(CC)c1ccccc1C | Not Active | Not Active | Not Active | Not Active | Not Active | Not Active | Not Active | Not Active | Not Active | Not Active | Not Active | Not Active | Not Active | Not Active | Not Active | Not Active | Not Active | Not Active | Not Active | Not Active | – |
| COc1ccc(CN(CCN(C)C)c2ccccn2)cc1 [PYRILAMINE] | Not Active | Not Active | Not Active | – | Not Active | Not Active | Not Active | Not Active | Not Active | Not Active | Not Active | Not Active | Not Active | Not Active | Not Active | Not Active | Not Active | Not Active | Not Active | Not Active | pIC50 [3]: 5.55; pKi [3]: 5.75 |
